PMC10300901, “Anticancer Activity and Mode of Action of Cu(II), Zn(II), and Mn(II) Complexes with 5-Chloro-2-N-(2-quinolylmethylene)aminophenol” (Molecules, 2023)
Like-named read-outs stand apart in the source and are kept apart here.

Columns and labels:
[1] = Solubility in saline (0.9% sodium chloride solution); type: physicochemical
MCF-7 = assay: MTT cytotoxicity assay, MCF-7; type: cell-based
Protocol: (§2) The cytotoxicity of C1–C3 was determined using an MTT (3-(4,5-dimethylthiazol-2-yl)-2,5-diphenyltetrazolium bromide) assay on various cancer cells.

[2] = tested on: cisplatin-resistant lung cancer (A549cisR) cells; assay: MTT cytotoxicity assay, A549cisR; type: cell-based
Protocol: as §2

A549 cells [3] = assay: Mitochondrial membrane potential (JC-1, flow cytometry); type: cell-based; conditions: C1 8 μM, 24 h
Protocol: Mitochondria play a key role in death signals through intrinsic and extrinsic apoptosis. Therefore, after exposure to C1, A549 cells were stained with a JC-1 probe to evaluate the mitochondrial membrane potential (ΔΨm) using flow cytometry.
Exponentially growing A549 cells were cultured in 6-well plates. Subsequently, C1 (4 μM and 8 μM) was exposed to the cells for 24 h. The cells were stained with JC-1 probe and analyzed by flow cytometry.

A549 cells [4] = assay: Transwell invasion assay; type: cell-based; conditions: 24 h
Protocol: (§1) Cell migration is crucial to cancer development and metastasis; metastasis is a major cause of many cancer-related deaths. The migration is very usually assessed by the application of the wound-healing assay, which involves the creation of an artificial gap in a cancer cell monolayer, followed by observation of the area covered with migrating cells. Therefore, the inhibiting effect of C1 on cancer cell migration was evaluated using a wound-healing assay. […] In addition, the effect of C1 on A549 cell invasion was investigated using a transwell assay.
The effect of C1 on tumor cell invasiveness was assessed by transwell assay. In brief, the transwell chamber was pre-coated with 70 μL diluted matrigel for 8 h at 37 °C. A549 cells were seeded to the upper chamber, and then C1 was added to the chamber. After 24 h of incubation, the chambers were washed, stained with 0.5% crystal violet for 20 min, and captured using an inverted microscope.

A549 cells [5] = assay: Wound-healing assay (cell migration); type: cell-based; conditions: 2 μM and 4 μM, 24 h
Protocol: as §1
To evaluate the impact of C1 on cell migration, a wound-healing assay was carried out. A549 cells were seeded into 6-well plates and incubated overnight at 37 °C. C1 was dissolved in saline. Subsequently, scratch wounds were performed in the monolayer of cells using sterile toothpicks, and then the cells were treated with the Cu complex (2 μM and 4 μM). The cells were captured using an inverted microscope at 0 and 24 h.

A549 cells [6] = assay: MTT cytotoxicity assay, A549
Protocol: as §2

A549 tumor = assay: In vivo antitumor experiment in mice bearing A549 tumors; design: species or system BALB/C nude mice; conditions: for Tumor growth inhibition rate: two weeks, mice bearing A549 tumors
Protocol: Based on these promising biological properties, the in vivo therapeutic efficacy of C1 was further investigated in mice bearing A549 tumors. […] Generally, body weight change is considered a key indicator of systemic toxicity.
In addition, TUNEL (terminal deoxynucleotidyl transferase dUTP nick end labeling) staining of tumor tissue sections was performed to examine the effect of C1 on apoptosis in vivo. […] Histological analyses were carried out using H&E (hematoxylin and eosin) staining to evaluate the toxicity of C1 for the major organ.
BALB/C nude mice (6–8 weeks old, 18–22 g) were purchased from Hunan SJA Laboratory Animal Co., Ltd. An amount of 200 μL of A549 cells (containing 2 × 10^6 cells) were subcutaneously injected into the left flank of the mice. The mice were randomly divided into 3 groups when the average tumor size reached 100 mm^3. Then, the mice were treated with saline and C1 (2.5 and 5 mg/kg) for two weeks. C1 was dissolved in saline. During the treatment, the tumor volume and body weight of mice were measured every two days. The major organs (heart, kidney, and liver) and tumor tissues were harvested and sliced for H&E staining and TUNEL staining, respectively.

A549 cells [7] = assay: Comet assay (DNA damage); type: cell-based
Protocol: Excessive intracellular ROS can cause DNA damage and cell death. Next, a comet assay was performed to determine whether C1 caused DNA damage. Undamaged DNA cannot migrate, and fluorescence is only confined to the nucleus. In DNA-damaged cells, negatively charged DNA fragments are then released from the nucleus and migrate towards the anode. There was no comet-like cell observed in the control group. In comparison, C1-treated cells with longer tails (white arrows) were observed, and a higher percentage, indicating the existence of severe DNA fragmentation (Figure 7B).
The A549 cells were seed into 6-well plates and treated with C1. A mixture of 10 μL cell suspension and 70 μL low-melting-point agarose (1%) were placed on a glass microscope slide (pre-coated with 1% normal-melting-point agarose) and covered with coverslips. The cells were separate by gel electrophoresis, stained with PI, and captured using an inverted fluorescence microscope.

WI-38 = assay: MTT cytotoxicity assay, WI-38; type: cell-based
Protocol: as §2

Hela = assay: MTT cytotoxicity assay, Hela; type: cell-based
Protocol: as §2

A549 cells [8] = assay: Cell cycle analysis (PI, flow cytometry); type: cell-based; conditions: 48 h
Protocol: The influence of metal compounds on cell cycle arrest contributes to their anticancer activity. To determine the effect of C1 on the cell cycle, the distribution of the cell cycle of C1-treated A549 cells was detected using flow cytometry.
The A549 cells were seeded into 10 cm dishes and incubated overnight. Subsequently, the cells were treated with C1 (4 μM and 8 μM). After 48 h, the cells were collected, fixed with 75% ethanol overnight, stained with PI for 20 min, and measured by flow cytometry.

CT-DNA = assay: EB-DNA fluorescence-quenching assay; type: binding; conditions: C1 0−16 μM, 8 μM EB, 10 μM CT-DNA, pH 7.2 Tris–HCl
Protocol: Competitive studies with ethidium bromide (EB) have been widely used in fluorescence-quenching assays to evaluate the interaction between DNA and small molecules. Therefore, to further explore the binding property of C1 and DNA, fluorescence quenching was carried out to explore the interaction mode.
The fluorescence spectrum was performed to measure the interaction mode of C1 (0−16 μM) and EB-DNA (8 μM ethidium bromide added into 10 μM CT-DNA) in a pH 7.2 Tris–HCl buffer. The EB-DNA was excited at 510 nm, and for the emission spectra, the emission range was set to 530–750 nm. C1 was gradually added to the EB-DNA solution.

A549 cells [9] = assay: Cell apoptosis analysis (Annexin V/PI, flow cytometry); type: cell-based; conditions: 24 h, control 4.0%
Protocol: Then, the effect of C1 on A549 cells apoptosis was stained with Annexin V/PI and analyzed using flow cytometry.
The A549 cells were placed in 6-well plates and incubated overnight. The cells were treated with C1 (4 μM and 8 μM) and incubated for 24 h. Subsequently, the cells were harvested and stained with Annexin V/PI for 20 min. The samples were detected by flow cytometry.

A549 cells [10] = assay: β-Galactosidase staining assay (senescence); type: cell-based; conditions: 24 h treatment
Protocol: Senescence is a permanent cellular stage involving cell cycle arrest, which is a potential strategy against cancer. We measured the impact of C1 on cell senescence in A549 cells using a β-galactosidase staining assay. The senescent cells were dyed blue by β-galactosidase.
A549 cells were cultured in 6-well plates and incubated overnight. After C1 treatment for 24 h, the cells were fixed. Then, 20 min later, the cells were washed and stained with β-galactosidase for 48 h. The stained cells were observed and captured using an inverted microscope.

A549 cells [11] = assay: Measurement of cellular ROS (H2DCF-DA, flow cytometry); type: cell-based; conditions: 4 μM and 8 μM, 24 h, vs control
Protocol: A change in the mitochondrial membrane potential results in mitochondrial dysfunction, which can induce reactive oxygen species (ROS) production. Based on the above information, we detected the ROS level in A549 cells using flow cytometry.
The ROS in A549 cells was analyzed by flow cytometry. After pretreatment with C1 (4 μM and 8 μM) for 24 h, the A549 cells were collected and stained with H2DCF-DA. After 20 min, the samples were measured using a flow cytometer.

For `[Cl][Cu][O]c1cc(Cl)ccc1N=Cc1ccc2ccccc2n1` [C1, 5-chloro-2-N-(2-quinolylmethylene)aminophenoxide-Cu(II)-chloride], the Solubility in saline [1] was ≥ 1900 µg/mL, the IC50 (MCF-7) was 5.3 ± 0.35 µM and the IC50 [2] was 6.79 ± 0.38 µM. The “ΔΨm of A549 cells reduced by (JC-1)” value (A549 cells [3]) was 23.7%, the “Effect on invasion of A549 cells” value (A549 cells [4]) was “could inhibit the invasion abilities of A549 cells” and the “Effect on migration of A549 cells” value (A549 cells [5]) was “strongly inhibited the migration ability of A549 cells”. For the same compound, the IC50 (A549 cells [6]; read-out: IC50 A549, MTT assay) was 3.93 ± 0.28 µM, the “Tumor growth inhibition rate” value (A549 tumor; C1 2.5 mg/kg) was 46.3% and the “Tumor growth inhibition rate” value (A549 tumor; C1 5 mg/kg) was 63.5%. For the same compound, the Body weight change (A549 tumor; C1 2.5 and 5 mg/kg, vs control group) was “no apparent weight loss”, the “Histology of heart, liver, and kidney (H&E staining)” value (A549 tumor; after treatment with C1) was “no pathological alterations or other abnormalities” and the “Apoptosis in tumor tissue (TUNEL staining)” value (A549 tumor; tumor tissue sections) was “notable cell apoptosis”. The “DNA damage (comet assay)” value (A549 cells [7]) was “induces DNA damage”, the IC50 (WI-38) was 10.2 ± 0.43 µM and the IC50 (Hela) was 6.31 ± 0.32 µM. The “Percentage of cells in G0/G1 phase” value (A549 cells [8]; C1 4 μM) was 48.85%, the “Percentage of cells in G2/M phase” value (A549 cells [8]; C1 4 μM) was 7.98% and the “Percentage of cells in S phase” value (A549 cells [8]; C1 4 μM) was 43.17%. The “Percentage of cells in G0/G1 phase” value (A549 cells [8]; C1 8 μM) was 54.45%, the “Percentage of cells in G2/M phase” value (A549 cells [8]; C1 8 μM) was 9.96% and the “Percentage of cells in S phase” value (A549 cells [8]; C1 8 μM) was 35.59%. For the same compound, the “DNA binding mode (EB displacement)” value (CT-DNA) was “binds to DNA in an intercalative binding mode”, the “Population of apoptotic cells” value (A549 cells [9]; C1 4 μM) was 15.0% and the “Population of apoptotic cells” value (A549 cells [9]; C1 8 μM) was 23.8%. For the same compound, the “Cell senescence (β-galactosidase staining)” value (A549 cells [10]) was “can induce A549 cell senescence” and the “Intracellular ROS level” value (A549 cells [11]) was “significantly increased”.

In the case of `Oc1cc(Cl)ccc1/N=C/c1ccc2ccccc2n1` [L, 5-chloro-2-N-(2-quinolylmethylene) aminophenol], the IC50 (MCF-7; Homo sapiens, MCF7) is reported as > 40 µM, the IC50 [2] is reported as > 40 µM and the IC50 (A549 cells [6]; Homo sapiens, A549, read-out: IC50 A549) is reported as > 40 µM. The IC50 (WI-38; Homo sapiens, WI-38) was > 40 µM and the IC50 (Hela; Homo sapiens, HeLa) was > 40 µM.

In the case of `O.O.[Cl][Mn][O]c1cc(Cl)ccc1N=Cc1ccc2ccccc2n1` [C3, 5-chloro-2-N-(2-quinolylmethylene)aminophenoxide-Mn(II)-chloride/dihydrate], the Solubility in saline [1] is reported as ≥ 800 µg/mL, the IC50 (MCF-7) is reported as > 40 µM and the IC50 [2] is reported as > 40 µM. For the same compound, the IC50 (A549 cells [6]; read-out: IC50 A549, MTT assay) was 33.6 ± 0.98 µM, the IC50 (WI-38) was > 40 µM and the IC50 (Hela) was > 40 µM.

Compound “5-chloro-2-N-(2-quinolylmethylene)aminophenoxide-Zn(II)-chloride/pyridine [C2]” has an IC50 (MCF-7) of 23.6 ± 0.98 µM, an IC50 [2] of 29.3 ± 0.85 µM and an IC50 (A549 cells [6]; read-out: IC50 A549, MTT assay) of 18.3 ± 0.52 µM. It also gave an IC50 (WI-38) of 34 ± 1.06 µM and an IC50 (Hela) of 22.8 ± 0.8 µM.

In the case of `N.N.[Cl][Pt][Cl]` [Cisplatin, reference compound], the IC50 (MCF-7) is reported as 14.5 ± 0.48 µM, the IC50 [2] is reported as > 40 µM and the IC50 (A549 cells [6]; read-out: IC50 A549, MTT assay) is reported as 12.5 ± 0.45 µM. For the same compound, the IC50 (WI-38) was 9.61 ± 0.58 µM and the IC50 (Hela) was 15.3 ± 0.51 µM.
